Active and inactive are the calls of the source. The rule behind the calls is not given here.
Assays:
Huh-7 [1] = test: Inhibition of colony formation in human Huh-7 cells assessed as reduction in number of cell colonies at 0.55 to 2.2 uM measured after 10 and 14 days by crystal violet staining based light microscopic analysis; assay type: functional; conditions: dose 0.55-2.2 µM, time 14.0 day
Huh-7 [2] = test: Antiinvasive activity in human Huh-7 cells assessed as reduction in number of invasive cells at 0.55 to 2.2 uM incubated for 24 hrs by transwell invasion assay; assay type: functional, cell-based; conditions: dose 0.55-2.2 µM
Huh-7 [3] = test: Induction of cell cycle arrest in human Huh-7 cells assessed as decrease in CDK1 expression incubated for 48 hrs by Western blotting analysis; assay type: functional, cell-based; conditions: dose 0.9-8.1 µM
SK-HEP1 [4] = test: Induction of apoptosis in human SK-HEP1 cells assessed as genomic DNA fragmentation at 1.5 to 13.5 uM incubated for 24 hrs by giemsa staining based micrscopic analysis; assay type: functional, cell-based; conditions: dose 1.5-13.5 µM
SK-HEP1 [5] = test: Inhibition of cell migration in human SK-HEP1 cells at 1.25 to 5 uM incubated for 24 hrs by crystal violet staining based transwell migration assay; assay type: functional; conditions: dose 1.25-5 µM
SK-HEP1 [6] = test: Induction of cell cycle arrest in human SK-HEP1 cells assessed as decrease in cyclin A expression incubated for 48 hrs by Western blotting analysis; assay type: functional, cell-based; conditions: dose 1.5-13.5 µM
Huh-7 [7] = test: Induction of apoptosis in human Huh-7 cells assessed as cell membrane blebbing at 0.9 to 8.1 uM incubated for 24 hrs by giemsa staining based micrscopic analysis; assay type: functional; conditions: dose 0.9-8.1 µM
Huh-7 [8] = test: Antiproliferative activity against human Huh-7 cells assessed as inhibition of cell growth upto 2 uM by MTT assay; assay type: functional, cell-based; conditions: time 72.0 hrs, TDE = time-dependent effect
SK-HEP1 [9] = test: Induction of apoptosis in human SK-HEP1 cells assessed as increase in proportion of late apoptosis at 1.5 to 13.5 uM incubated for 24 hrs by Annexin V-AbFluor 488/propidium iodide staining based flow cytometry analysis; assay type: functional, cell-based; conditions: dose 1.5-13.5 µM
SK-HEP1 [10] = test: Inhibition of colony formation in human SK-HEP1 cells assessed as reduction in number of cell colonies at 1.25 to 5 uM measured after 10 and 14 days by crystal violet staining based light microscopic analysis; assay type: functional; conditions: dose 1.25-5 µM, time 14.0 day
SK-HEP1 [11] = test: Induction of apoptosis in human SK-HEP1 cells assessed as chromatin condensation at 1.5 to 13.5 uM incubated for 24 hrs by giemsa staining based micrscopic analysis; assay type: functional, cell-based; conditions: dose 1.5-13.5 µM
SK-HEP1 [12] = test: Induction of apoptosis in human SK-HEP1 cells assessed as inhibition of caspase-3 expression incubated for 48 hrs by Western blotting analysis; assay type: functional, cell-based; conditions: dose 1.5-13.5 µM
SK-HEP1 [13] = test: Antiproliferative activity against human SK-HEP1 cells assessed as inhibition of cell growth upto 2 uM by MTT assay; assay type: functional, cell-based; conditions: time 72.0 hrs, TDE = time-dependent effect
[14] = Toxicity in BALB/c mouse xenografted with human Huh-7 cells assessed as change in body weight at 15 to 30 mg/kg, ip qd measured after 14 days; assay type: organism-based; conditions: in vivo, 336 h, dose 15-30 mg/kg, time 14 day
[15] = target: Serine/threonine-protein kinase mTOR (Homo sapiens) (UniProt P42345); test: Inhibition of mTOR signalling pathway in human SK-HEP1 cells assessed as inhibition of mTOR phosphorylation at 1.5 to 13.5 uM measured after 48 hrs by Western blotting analysis; assay type: cell-based; conditions: dose 1.5-13.5 µM
[16] = target: T1, Serine/threonine-protein kinase AKT (Homo sapiens) (UniProt P31751+Q9Y243+P31749); test: Inhibition of Akt signalling pathway in human Huh-7 cells assessed as inhibition of Akt phosphorylation at 0.9 to 8.1 uM measured after 48 hrs by Western blotting analysis; assay type: cell-based; conditions: dose 0.9-8.1 µM
T1 sequence (P31749 whole entry, looked up): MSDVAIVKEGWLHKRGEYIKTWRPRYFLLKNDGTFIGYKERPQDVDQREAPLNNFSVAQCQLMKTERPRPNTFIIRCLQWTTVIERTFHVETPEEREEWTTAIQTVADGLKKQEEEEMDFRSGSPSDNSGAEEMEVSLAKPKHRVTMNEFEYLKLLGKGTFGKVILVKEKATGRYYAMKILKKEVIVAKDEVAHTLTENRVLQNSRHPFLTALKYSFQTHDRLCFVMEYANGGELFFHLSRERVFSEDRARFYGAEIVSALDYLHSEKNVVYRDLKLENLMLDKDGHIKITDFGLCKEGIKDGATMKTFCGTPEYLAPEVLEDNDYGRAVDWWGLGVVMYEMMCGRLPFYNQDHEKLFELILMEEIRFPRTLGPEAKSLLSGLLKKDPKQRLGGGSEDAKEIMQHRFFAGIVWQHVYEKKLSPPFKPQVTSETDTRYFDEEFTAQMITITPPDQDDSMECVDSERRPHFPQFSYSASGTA
T1 sequence (P31751 whole entry, looked up): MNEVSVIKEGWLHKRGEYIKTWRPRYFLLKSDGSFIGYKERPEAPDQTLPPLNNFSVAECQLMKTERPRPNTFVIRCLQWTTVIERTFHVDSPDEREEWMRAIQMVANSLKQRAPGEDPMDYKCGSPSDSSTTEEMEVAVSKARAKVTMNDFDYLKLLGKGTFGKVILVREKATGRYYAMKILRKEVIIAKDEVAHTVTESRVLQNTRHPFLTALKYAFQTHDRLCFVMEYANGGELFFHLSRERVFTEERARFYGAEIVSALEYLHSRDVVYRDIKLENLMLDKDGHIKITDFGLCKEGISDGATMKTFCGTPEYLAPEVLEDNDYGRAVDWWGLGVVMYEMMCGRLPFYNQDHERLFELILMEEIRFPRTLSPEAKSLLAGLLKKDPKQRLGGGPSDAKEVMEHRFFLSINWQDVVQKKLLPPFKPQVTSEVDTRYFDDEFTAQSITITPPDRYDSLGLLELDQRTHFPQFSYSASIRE
T1 sequence (Q9Y243 whole entry, looked up): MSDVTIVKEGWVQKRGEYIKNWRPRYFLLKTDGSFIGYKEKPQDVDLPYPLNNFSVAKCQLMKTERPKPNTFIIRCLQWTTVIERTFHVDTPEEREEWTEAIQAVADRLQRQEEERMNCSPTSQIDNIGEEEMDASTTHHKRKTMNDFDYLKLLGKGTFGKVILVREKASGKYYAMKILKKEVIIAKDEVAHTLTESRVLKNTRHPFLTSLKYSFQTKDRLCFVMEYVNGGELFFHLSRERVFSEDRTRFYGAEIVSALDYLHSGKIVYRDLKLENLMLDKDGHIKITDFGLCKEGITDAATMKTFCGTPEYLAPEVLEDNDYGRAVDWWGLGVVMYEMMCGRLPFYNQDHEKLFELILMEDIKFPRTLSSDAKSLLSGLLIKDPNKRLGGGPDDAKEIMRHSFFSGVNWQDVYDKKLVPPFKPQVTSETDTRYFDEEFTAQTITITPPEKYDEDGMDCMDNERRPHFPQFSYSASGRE

[17] = Acute toxicity in BALB/c mouse assessed as mouse survival at 650 mg/kg, ip measured after 14 days; assay type: organism-based; conditions: in vivo, 336 h, time 14 day
SK-HEP1 [18] = test: Antiinvasive activity in human SK-HEP1 cells assessed as reduction in number of invasive cells at 1.25 to 5 uM incubated for 24 hrs by transwell invasion assay; assay type: functional, cell-based; conditions: dose 1.25-5 µM
Huh-7 [19] = test: Antitumor activity against human Huh-7 cells xenografted in BALB/c mouse assessed as reduction in tumor growth at 15 to 30 mg/kg, ip qd measured after 5 days; assay type: functional, organism-based; conditions: dose 15-30 mg/kg, time 5.0 day
HepG2 = test: Antiproliferative activity against human HepG2 cells assessed as inhibition of cell growth measured after 72 hrs by MTT assay; assay type: functional, cell-based; conditions: HepG2, 72 h
Huh-7 [20] = test: Induction of apoptosis in human Huh-7 cells assessed as increase in proportion of early apoptosis at 0.9 to 8.1 uM incubated for 24 hrs by Annexin V-AbFluor 488/propidium iodide staining based flow cytometry analysis; assay type: functional, cell-based; conditions: dose 0.9-8.1 µM
Huh-7 [21] = test: Induction of cell cycle arrest in human Huh-7 cells assessed as decrease in cyclin A expression incubated for 48 hrs by Western blotting analysis; assay type: functional, cell-based; conditions: dose 0.9-8.1 µM
Huh-7 [22] = test: Antimigratory activity against human Huh-7 cells assessed as down-regulation of N-cadherin expression at 0.55 to 2.2 uM incubated 24 hrs by Western blotting analysis; assay type: functional, cell-based; conditions: dose 0.55-2.2 µM
Huh-7 [23] = test: Induction of apoptosis in human Huh-7 cells assessed as genomic DNA fragmentation at 0.9 to 8.1 uM incubated for 24 hrs by giemsa staining based micrscopic analysis; assay type: functional, cell-based; conditions: dose 0.9-8.1 µM
SK-HEP1 [24] = test: Induction of cell cycle arrest in human SK-HEP1 cells assessed as decrease in accumulation of cells at G0/G1 phase incubated for 24 hrs by propidium iodide staining based flow cytometry analysis; assay type: functional; conditions: dose 1.5-13.5 µM
Huh-7 [25] = test: Antimigratory activity against human Huh-7 cells assessed as up-regulation of E-cadherin expression at 0.55 to 2.2 uM incubated 24 hrs by Western blotting analysis; assay type: functional, cell-based; conditions: dose 0.55-2.2 µM
Huh-7 [26] = test: Antiproliferative activity against human Huh-7 cells assessed as inhibition of cell growth measured after 72 hrs by MTT assay; assay type: functional, cell-based
Huh-7 [27] = test: Inhibition of cell migration in human Huh-7 cells incubated for 24 hrs by scratch wound healing assay; assay type: functional, cell-based; conditions: dose 0.55-2.2 µM
Huh-7 [28] = test: Induction of apoptosis in human Huh-7 cells assessed as inhibition of caspase-3 expression incubated for 48 hrs by Western blotting analysis; assay type: functional, cell-based; conditions: dose 0.9-8.1 µM
Huh-7 [29] = test: Induction of apoptosis in human Huh-7 cells assessed as nuclear membrane breakdown at 0.9 to 8.1 uM incubated for 24 hrs by giemsa staining based micrscopic analysis; assay type: functional, cell-based; conditions: dose 0.9-8.1 µM
SK-HEP1 [30] = test: Induction of cell cycle arrest in human SK-HEP1 cells assessed as decrease in cyclin B1 expression incubated for 48 hrs by Western blotting analysis; assay type: functional, cell-based; conditions: dose 1.5-13.5 µM
SK-HEP1 [31] = test: Induction of apoptosis in human SK-HEP1 cells assessed as inhibition of Bcl-2 expression incubated for 48 hrs by Western blotting analysis; assay type: functional, cell-based; conditions: dose 1.5-13.5 µM
SK-HEP1 [32] = test: Induction of apoptosis in human SK-HEP1 cells assessed as cell shrinkage at 1.5 to 13.5 uM incubated for 24 hrs by giemsa staining based micrscopic analysis; assay type: functional; conditions: dose 1.5-13.5 µM
[33] = target: T1, Serine/threonine-protein kinase AKT (Homo sapiens); test: Inhibition of Akt signalling pathway in human SK-HEP1 cells assessed as inhibition of Akt phosphorylation at 1.5 to 13.5 uM measured after 48 hrs by Western blotting analysis; assay type: cell-based; conditions: dose 1.5-13.5 µM
Huh-7 [34] = test: Induction of apoptosis in human Huh-7 cells assessed as increase in Bax expression at 0.9 to 8.1 uM incubated for 48 hrs by Western blotting analysis; assay type: functional, cell-based; conditions: dose 0.9-8.1 µM
Huh-7 [35] = test: Induction of apoptosis in human Huh-7 cells assessed as inhibition of Bcl-2 expression incubated for 48 hrs by Western blotting analysis; assay type: functional, cell-based; conditions: dose 0.9-8.1 µM

For `CC(=O)Oc1ccccc1/C=C/c1nccc2ccccc12`, the inhibition (Huh-7 [1]) was “Active”, the Activity (Huh-7 [2]) was “Active” and the Activity (Huh-7 [3]) was “Dose-Dependent Effect”. For the same compound, the Activity (SK-HEP1 [4]) was “Active”, the inhibition (SK-HEP1 [5]) was “Active” and the Activity (SK-HEP1 [6]) was “Dose-Dependent Effect”. The Activity (Huh-7 [7]) was “Active”, the Activity (Huh-7 [8]) was “Tde” and the Activity (SK-HEP1 [9]) was “Active”. For the same compound, the inhibition (SK-HEP1 [10]) was “Active”, the Activity (SK-HEP1 [11]) was “Active” and the Activity (SK-HEP1 [12]) was “Dose-Dependent Effect”. The Activity (SK-HEP1 [13]) was “Tde”, the Activity [14] was “Non-Toxic” and the inhibition [15] was “Active”. The inhibition [16] was “Active”, the Activity [17] was “Non-Toxic” and the Activity (SK-HEP1 [18]) was “Active”. The Activity (Huh-7 [19]) was “Active”, the IC50 (HepG2) was 9.76 µM and the Activity (Huh-7 [20]) was “Active”. The Activity (Huh-7 [21]) was “Dose-Dependent Effect”, the Activity (Huh-7 [22]) was “Active” and the Activity (Huh-7 [23]) was “Active”. For the same compound, the Activity (SK-HEP1 [24]) was “Dose-Dependent Effect”, the Activity (Huh-7 [25]) was “Active” and the Activity (Huh-7 [26]) was “Dose-Dependent Effect”. For the same compound, the IC50 (Huh-7 [26]; Huh-7, 72 h) was 2.52 µM, the inhibition (Huh-7 [27]) was “Dose-Dependent Effect” and the Activity (Huh-7 [28]) was “Dose-Dependent Effect”. The Activity (Huh-7 [29]) was “Active”, the Activity (SK-HEP1 [30]) was “Dose-Dependent Effect” and the Activity (SK-HEP1 [31]) was “Dose-Dependent Effect”. The Activity (SK-HEP1 [32]) was “Active”, the inhibition [33] was “Active” and the Activity (Huh-7 [34]) was “Active”. The Activity (Huh-7 [35]) was “Dose-Dependent Effect”.
